Test results as given in ChEMBL document CHEMBL4811316, “Larvicidal activity and in silico studies of cinnamic acid derivatives against Aedes aegypti (Diptera: Culicidae)” (Bioorg Med Chem, 2021).
≈ marks a conversion by molar mass, not a printed value.

Assay: Toxicity in Aedes aegypti assessed as translucent in anal papillae at 50 ug/ml
Details: dose 50 µg/ml

Row | SMILES | Activity
1 | CCOC(=O)/C=C/c1ccc(Cl)cc1 [ETHYL 3-(4-CHLOROPHENYL)ACRYLATE] | Toxic

Assay: Toxicity in Aedes aegypti assessed as appearance of dark spots in thorax region at 50 ug/ml
Details: dose 50 µg/ml

Row | SMILES | Activity
2 | CCOC(=O)/C=C/c1ccc(Cl)cc1 [ETHYL 3-(4-CHLOROPHENYL)ACRYLATE] | Toxic

Assay: Toxicity in Aedes aegypti assessed as appearance of dark spots in siphon region at 50 ug/ml
Details: dose 50 µg/ml

Row | SMILES | Activity
3 | CCOC(=O)/C=C/c1ccc(Cl)cc1 [ETHYL 3-(4-CHLOROPHENYL)ACRYLATE] | Toxic

Assay: Larvicidal activity against Aedes aegypti assessed as mortality at 45 ug/ml measured after 24 hrs relative to control
Format: ADME
Details: at 45 µg/mL

Row | SMILES | mortality [%]
4 | O=C(O)/C=C/c1ccc(C(F)(F)F)cc1 | 0
5 | O=C(O)/C=C/c1ccc(Cl)cc1 | 95
6 | CCOC(=O)/C=C/c1ccc([N+](=O)[O-])cc1 | 98.3
7 | CCOC(=O)/C=C/c1ccc(C(F)(F)F)cc1 | 98.3
8 | CCOC(=O)/C=C/c1ccc(C#N)cc1 | 8.3
9 | CCOC(=O)/C=C/c1ccc(OC(F)(F)F)cc1 | 93.3
10 | CCOC(=O)/C=C/C=C/c1ccccc1 | 93.3
11 | CCOC(=O)/C=C/c1ccc(C(C)(C)C)cc1 | 40
12 | CCOC(=O)/C=C/c1ccc(F)cc1 | 83.3
13 | CCOC(=O)/C=C/c1ccc(Br)cc1 | 100
14 | O=C(O)/C=C/c1ccc(Br)cc1 | 36.7
15 | O=C(O)/C=C/c1ccc([N+](=O)[O-])cc1 | 86.7
16 | CCOC(=O)/C=C/c1ccc(OC)cc1 [4-METHOXY ETHYL CINNAMATE] | 80
17 | COc1ccc(/C=C/C(=O)O)cc1 [4-METHOXYCINNAMIC ACID] | 0
18 | O=C(O)/C=C/c1ccccc1 [CINNAMIC ACID] | 0
19 | CCOC(=O)/C=C/c1ccc(Cl)cc1Cl [ETHYL 3-(2,4-DICHLOROPHENYL)ACRYLATE] | 86.7
20 | CCOC(=O)/C=C/c1ccc(Cl)cc1 [ETHYL 3-(4-CHLOROPHENYL)ACRYLATE] | 100
21 | CCOC(=O)/C=C/c1ccccc1 [ETHYL CINNAMATE] | 95
22 | CCOC(=O)/C=C/c1ccc(O)cc1 [ETHYL P-COUMARATE] | 0

Assay: Larvicidal activity against Aedes aegypti 4th instar larvae measured after 48 hrs
Format: ADME
Details: not given

Row | SMILES | LC10 [mg/L] | LC50 [mg/L] | LC90 [mg/L]
23 | O=C(O)/C=C/c1ccc(C(F)(F)F)cc1 | 87.7 (≈ 406 µM) | 97.6 (≈ 452 µM) | 108.6 (≈ 502 µM)
24 | O=C(O)/C=C/c1ccc(Cl)cc1 | 16.2 (≈ 88.7 µM) | 26 (≈ 142 µM) | 41.8 (≈ 229 µM)
25 | CCOC(=O)/C=C/c1ccc([N+](=O)[O-])cc1 | 21.3 (≈ 96.3 µM) | 35.7 (≈ 161 µM) | 60 (≈ 271 µM)
26 | CCOC(=O)/C=C/c1ccc(C(F)(F)F)cc1 | 11.1 (≈ 45.5 µM) | 21.6 (≈ 88.4 µM) | 42.2 (≈ 173 µM)
27 | CCOC(=O)/C=C/c1ccc(OC(F)(F)F)cc1 | 19.6 (≈ 75.3 µM) | 31.3 (≈ 120 µM) | 50 (≈ 192 µM)
28 | CCOC(=O)/C=C/C=C/c1ccccc1 | 10 (≈ 49.4 µM) | 19.7 (≈ 97.4 µM) | 38.8 (≈ 192 µM)
29 | CCOC(=O)/C=C/c1ccc(F)cc1 | 24 (≈ 124 µM) | 32.2 (≈ 166 µM) | 43.2 (≈ 222 µM)
30 | CCOC(=O)/C=C/c1ccc(Br)cc1 | 18.9 (≈ 74.1 µM) | 25.1 (≈ 98.4 µM) | 33.3 (≈ 131 µM)
31 | O=C(O)/C=C/c1ccc(Br)cc1 | 31.7 (≈ 140 µM) | 54.4 (≈ 240 µM) | 93.2 (≈ 410 µM)
32 | O=C(O)/C=C/c1ccc([N+](=O)[O-])cc1 | 29 (≈ 150 µM) | 37.1 (≈ 192 µM) | 47.5 (≈ 246 µM)
33 | CCOC(=O)/C=C/c1ccc(OC)cc1 [4-METHOXY ETHYL CINNAMATE] | 18.2 (≈ 88.2 µM) | 26.9 (≈ 130 µM) | 39.7 (≈ 192 µM)
34 | CCOC(=O)/C=C/c1ccc(Cl)cc1Cl [ETHYL 3-(2,4-DICHLOROPHENYL)ACRYLATE] | 10.2 (≈ 41.6 µM) | 23.6 (≈ 96.3 µM) | 54.8 (≈ 224 µM)
35 | CCOC(=O)/C=C/c1ccc(Cl)cc1 [ETHYL 3-(4-CHLOROPHENYL)ACRYLATE] | 3.5 (≈ 16.6 µM) | 8.3 (≈ 39.4 µM) | 19.7 (≈ 93.5 µM)
36 | CCOC(=O)/C=C/c1ccccc1 [ETHYL CINNAMATE] | 30.4 (≈ 173 µM) | 35.6 (≈ 202 µM) | 41.7 (≈ 237 µM)
37 | COP(=S)(OC)Oc1ccc(Sc2ccc(OP(=S)(OC)OC)cc2)cc1 [TEMEFOS] | 1.8 (≈ 3.86 µM) | 4.4 (≈ 9.43 µM) | 10.4 (≈ 22.3 µM)

Assay: Retention time of the compound
Format: physicochemical
Details: not given

Row | SMILES | Retention_time [min]
38 | O=C(O)/C=C/c1ccc(Cl)cc1 | 3.32
39 | CCOC(=O)/C=C/c1ccc(Cl)cc1 [ETHYL 3-(4-CHLOROPHENYL)ACRYLATE] | 3.61

Assay: Toxicity in Aedes aegypti assessed as reduction in body mass at 50 ug/ml
Details: dose 50 µg/ml

Row | SMILES | Activity
40 | CCOC(=O)/C=C/c1ccc(Cl)cc1 [ETHYL 3-(4-CHLOROPHENYL)ACRYLATE] | Toxic

Assay: Toxicity in Aedes aegypti assessed as appearance of dark spots in intestine region at 50 ug/ml
Format: tissue-based
Details: dose 50 µg/ml

Row | SMILES | Activity
41 | CCOC(=O)/C=C/c1ccc(Cl)cc1 [ETHYL 3-(4-CHLOROPHENYL)ACRYLATE] | Toxic

Assay: Toxicity in Aedes aegypti assessed as abdomen curvature at 50 ug/ml
Details: dose 50 µg/ml

Row | SMILES | Activity
42 | CCOC(=O)/C=C/c1ccc(Cl)cc1 [ETHYL 3-(4-CHLOROPHENYL)ACRYLATE] | Toxic

Assay: Toxicity in Aedes aegypti assessed as rigid and elongated exoskeleton at 50 ug/ml
Details: dose 50 µg/ml

Row | SMILES | Activity
43 | CCOC(=O)/C=C/c1ccc(Cl)cc1 [ETHYL 3-(4-CHLOROPHENYL)ACRYLATE] | Toxic

Assay: Drug recovery in Aedes aegypti larval extract by HPLC analysis
Format: ADME
Details: 24 h

Row | SMILES | Drug recovery [µg/mL]
44 | O=C(O)/C=C/c1ccc(Cl)cc1 | 2.7143
45 | CCOC(=O)/C=C/c1ccc(Cl)cc1 [ETHYL 3-(4-CHLOROPHENYL)ACRYLATE] | 8.2531

Assay: Toxicity in Aedes aegypti assessed as modifications in anal papillae at 50 ug/ml
Details: dose 50 µg/ml

Row | SMILES | Activity
46 | CCOC(=O)/C=C/c1ccc(Cl)cc1 [ETHYL 3-(4-CHLOROPHENYL)ACRYLATE] | Toxic

Assay: Drug recovery in Aedes aegypti supernatant measured after 24 hrs by HPLC analysis
Format: ADME
Details: not given

Row | SMILES | Drug recovery [µg/mL]
47 | O=C(O)/C=C/c1ccc(Cl)cc1 | 3.8191
48 | CCOC(=O)/C=C/c1ccc(Cl)cc1 [ETHYL 3-(4-CHLOROPHENYL)ACRYLATE] | 10.8746

Assay: Larvicidal activity against Aedes aegypti assessed as mortality at 100 ug/ml measured after 24 hrs relative to control
Format: ADME
Details: at 100 µg/mL

Row | SMILES | mortality [%]
49 | O=C(O)/C=C/c1ccc(C(F)(F)F)cc1 | 56.7
50 | O=C(O)/C=C/c1ccc(Cl)cc1 | 100
51 | CCOC(=O)/C=C/c1ccc(N(C)C)cc1 | 6.7
52 | O=C(O)/C=C/c1ccc(OC(F)(F)F)cc1 | 40
53 | O=C(O)/C=C/c1ccc(Br)cc1 | 93.3
54 | O=C(O)/C=C/c1ccc([N+](=O)[O-])cc1 | 96.7
55 | O=C(O)/C=C/c1ccc(F)cc1 | 0
56 | O=C(O)/C=C/c1ccccc1 [CINNAMIC ACID] | 28.3
